Assays:
[1] = system: syngeneic BRAFV600E PTEN−/− melanomas; experiment: Syngeneic transplant tumor study: tumor growth, flow cytometry, Western blot, ELISA, qRT-PCR; format: in vivo, mouse
Protocol: B6.Cg-Braf^tm1MmcmPten^tm1Hwu Tg(Tyr-cre/ERT2 H-2^b)13Bos/BosJ transgenic mice were subdermally injected with 4-Hydroxytomoxifen (4-HT) (Sigma, H6278-50MG CCF, 38.75 μg/mouse) to induce primary melanoma development at the base of the tail. Mice were randomly assigned to treatment cohorts once tumor volumes reached 64 mm^3 (19, 30, 50). Depending on the experiment, mice were treated with the following agents: CXCR2 inhibitor (AZD5069, AstraZeneca) at 100 mg/kg per os (po) twice daily, NLRP3 inhibitor (MCC950) 10 mg/kg i.p every other day, anti-PD1 ab (BioXCell) or rat IgG2a isotype control (BioXCell) at 200 μg by i.p. injection every 3 days, Dacarbazine (50 mg/kg or 75 mg/kg, Sigma-Aldrich, D2390) by i.p. injection once every other day. Melanoma growth was monitored by orthogonal caliper measurements every 3 days.
Braf^V600EPten^−/−, Braf^V600EPten^−/−-NTC, Braf^V600EPten^−/−-Wnt5a^KD, Braf^V600EPten^−/−-CXCL5^KD, Braf^V600EPten^−/−-PDL1^KD, and Braf^V600EPten^−/−-NLRP3^KD cell lines (0.5×10^5-1×10^5 cells) were implanted by subcutaneous injection into the base of the tail of syngeneic C57BL/6 mice. Tumor growth was monitored by caliper measurement every 3 days and treatment was initiated when tumor volumes reached 64 mm^3. Tumor volume was calculated according to the formula: cm^3=[(length (cm)×(width (cm))^2]/2.
One million cells were stained with 1 μg per million cells of each fluorochrome conjugated antibodies or commercially available dyes according to the standard protocols and analyzed using a FACSCanto II or LSRII (Becton Dickinson). Cells were stained with Fc receptor blocking antibodies followed by a live/dead discriminator (CellTrace Violet, ThermoFisher, C34571), then by conjugated antibodies for 30 min at 4° C. Cell number was calculated by hemocytometer. Flow cytometry data was analyzed using Flowjo software v10.3.
Tumor tissue or cells were homogenized in NP40 lysis buffer (Sigma-Aldrich) supplemented with complete protease inhibitor and phosphatase inhibitor (Roche). Cells were lysed in Laemmli sample buffer after treatment and subjected to SDS-polyacrylamide gel electrophoresis. After transferring onto PVDF membranes (Bio-Rad), monoclonal and polyclonal primary antibodies and appropriate HRP-conjugated secondary antibodies were utilized for blotting. For the immunoprecipitation assays, cells were lysed with TBS buffer (50 mM Tris-HCl (pH 7.4), 150 mM NaCl) containing 0.5% Triton X-100, EDTA-free protease inhibitor cocktail and phosphatase inhibitor cocktail, precleared with protein A/G beads, and then incubated with 1 μg of appropriate antibodies or isotype control IgG on a rotator overnight at 4° C. then incubated with protein A/G-agarose at 4° C. for 1 hour. After 5 washes with TBS buffer, immunoprecipitated complexes were eluted in sample buffer by boiling and subjected to immunoblot analysis. Immunoblots were visualized by chemiluminescence substrate (ThermoFisher) and imaged by a ChemiDoc XRSplus system (BioRad). For the ASC polymerization assay, cells were lysed with TBS buffer containing 0.5% Triton X-100, EDTA-free protease inhibitor cocktail and phosphatase inhibitor cocktail. The lysates were centrifuged at 4,000 g at 4° C. for 15 min. For the detection of ASC oligomerization, the Triton-insoluble pellets were washed twice with TBS buffer and then resuspended in 500 μl TBS buffer. The resuspended pellets were crosslinked for 30 min at room temperature with 2 mM Disuccinimidyl suberate (DSS) (Thermo Fisher Scientific, 21655) and then centrifuged for 15 min at 6,000 g. The pellets were dissolved in SDS sample buffer.
Total RNA was isolated by RNeasy Plus Mini Kit (Qiagen, 74134). RNA (1000 ng) was used in cDNA Synthesis (iScript Reverse Transcription Supermix, BioRad, 1708841). Data analysis utilized the PrimePCR Analysis Software (BioRad). […]

[2] = system: BRAFV600EPTEN−/− melanoma cells; experiment: MTT cell proliferation assay in culture; format: cell-based, mouse; conditions: NLRP3 inhibitor (MCC950) in culture
From the text: FIG. 14A-H. (A) NLRP3 Western blot analysis of NTC and NLRP3KD BRAFV600EPTEN−/− melanoma cells. (B) Representative dot plots of PMN-MDSC and CD8+ T cell flow cytometry analysis of resected BRAFV600EPTEN^−/−-NTC and BRAFV600EPTEN^−/−-NLRP3KD stable cell lines. Representative of 2 independent experiments. (C) Top, MTT cell proliferation assay of BRAFV600EPTEN^−/−-NTC, BRAFV600EPTEN−/−-NLRP3KD, BRAFV600EPTEN^−/−-PDL1KD stable cell lines in culture. ns, non-significant. Bottom, MTT cell proliferation assay of BRAFV600EPTEN−/−melanoma cells following treatment with NLRP3 inhibitor (MCC950) in culture. Each performed in triplicate. (D) Tumor growth curve of BRAFV600EPTEN^−/−-NLRP3KDmelanomas with CD8+ T cell ablation. Mice treated with anti-CD8 ab ip daily×3 days followed by anti-CD8 ab one week later (gray boxes). BRAFV600EPTEN^−/−-NTC control tumors also included (n=5). (E) Plasma HSP70 ELISA of BRAFV600EPTEN^−/− melanoma-bearing mice following treatment with IgG isotype control ab, anti-PD-1 ab, or anti-PD-1 ab+MCC950 NLRP3 inhibitor (NLRP3i) (n=4/group). NTC, non-targeted control. KD, knockdown. (F) IL-1β qrt-PCR analysis of BRAFV600EPTEN−/− melanoma cells (n=3). Data normalized to TLR9 expression. (G) Above, IL-1β ELISA of BRAFV600EPTEN−/−-melanoma cell line supernatant after IFNγ/anti-PD-L1 ab treatment in vitro (n=3). […]

[3] = combined anti-PD-1 Ab and NLRP3 inhibitor

With `CC(C)(O)c1coc(S(=O)(=O)NC(=O)Nc2c3c(cc4c2CCC4)CCC3)c1` [MCC950, N-[[(1,2,3,5,6,7-hexahydro-s-indacen-4-yl)amino]carbonyl]-4-(1-hydroxy-1-methylethyl)-2-furansulfonamide] the “PMN-MDSC recruitment in response to anti-PD-1 Ab therapy” value ([1]; NLRP3 inhibition combined with anti-PD-1 Ab (200 μg i.p. every 3 days)) was “diminished”, the “levels of tumor-infiltrating CD8+ T cells” value ([1]; NLRP3 inhibitor MCC950 combined with anti-PD-1 Ab) was “enhanced” and the “tumor progression in vivo” value ([1]; NLRP3 inhibitor MCC950 combined with anti-PD-1 Ab, beyond what was observed with anti-PD-1 Ab monotherapy) was “suppressed”. For the same compound, the “HSP70 release (plasma ELISA)” value ([1]; combined anti-PD-1 Ab and NLRP3 inhibition) was “suppressed”, the “Cxcl5 levels (tumor qRT-PCR)” value [1, 3] was “suppressed” and the “Wnt5a expression (whole-tissue Western blot)” value [1, 3] was “suppressed”. The “caspase-1 cleavage (whole-tissue Western blot)” value [1, 3] was “suppressed”, the “expression of the cytolytic T cell marker Gzmb (tumor qRT-PCR)” value [1, 3] was “enhanced” and the “impact on tumor cell proliferation in vitro” value [2] was “neither pharmacologic inhibition of NLRP3 nor genetic silencing of Nlrp3 had any impact”.

From patent publication US12121565B2, “Methods of treatment of specific cancers with NLRP3 inhibitors and anti-PD1/PD-L1 antibodies” (Duke University, priority 2019, dated 2024)
